Reference: ChEMBL document CHEMBL5678818, “Discovery of potent SOS1 inhibitors that block RAS activation via disruption of the RAS-SOS1 interaction” (Proc Natl Acad Sci U S A, 2019)

Experiments:
[1] = biological target: Atypical kinase COQ8A, mitochondrial (Homo sapiens) (UniProt Q8NI60); test: Inhibition of ADCK3 (unknown origin) assessed as residual activity at 100 nM by KINOMEscan analysis relative to control
[2] = biological target: Cyclin-dependent kinase 3 (Homo sapiens) (UniProt Q00526); test: Inhibition of CDK3 (unknown origin) assessed as residual activity at 100 nM by KINOMEscan analysis relative to control
Sequence of Cyclin-dependent kinase 3 (Homo sapiens) (Q00526 whole entry, looked up): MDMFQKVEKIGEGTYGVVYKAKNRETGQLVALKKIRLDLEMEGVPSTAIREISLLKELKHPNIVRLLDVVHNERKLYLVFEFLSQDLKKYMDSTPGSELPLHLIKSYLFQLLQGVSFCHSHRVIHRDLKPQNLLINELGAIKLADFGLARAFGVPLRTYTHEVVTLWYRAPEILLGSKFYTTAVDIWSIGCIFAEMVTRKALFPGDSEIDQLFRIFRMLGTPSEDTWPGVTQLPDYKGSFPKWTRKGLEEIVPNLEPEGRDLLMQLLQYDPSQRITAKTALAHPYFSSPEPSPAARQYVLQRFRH

[3] = biological target: Calcium/calmodulin-dependent protein kinase type 1G (Homo sapiens) (UniProt Q96NX5); test: Inhibition of CAMK1G (unknown origin) assessed as residual activity at 100 nM by KINOMEscan analysis relative to control
Sequence of Calcium/calmodulin-dependent protein kinase type 1G (Homo sapiens) (Q96NX5 whole entry): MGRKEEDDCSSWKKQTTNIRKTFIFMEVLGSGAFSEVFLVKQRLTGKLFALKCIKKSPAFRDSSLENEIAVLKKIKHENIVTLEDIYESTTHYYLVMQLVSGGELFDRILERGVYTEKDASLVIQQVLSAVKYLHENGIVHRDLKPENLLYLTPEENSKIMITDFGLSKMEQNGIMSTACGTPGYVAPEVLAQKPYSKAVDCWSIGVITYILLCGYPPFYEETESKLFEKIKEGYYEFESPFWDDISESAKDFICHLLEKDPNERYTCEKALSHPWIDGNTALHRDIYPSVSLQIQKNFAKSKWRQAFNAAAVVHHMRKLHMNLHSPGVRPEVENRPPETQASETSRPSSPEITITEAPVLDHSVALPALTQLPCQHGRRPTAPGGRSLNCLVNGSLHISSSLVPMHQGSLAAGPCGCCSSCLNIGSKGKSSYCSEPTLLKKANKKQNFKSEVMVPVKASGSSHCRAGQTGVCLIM

[4] = biological target: Serine/threonine-protein kinase 38-like (Homo sapiens) (UniProt Q9Y2H1); test: Inhibition of NDR2 (unknown origin) assessed as residual activity at 100 nM by KINOMEscan analysis relative to control
Sequence of Serine/threonine-protein kinase 38-like (Homo sapiens) (Q9Y2H1 2-464 limits assumed): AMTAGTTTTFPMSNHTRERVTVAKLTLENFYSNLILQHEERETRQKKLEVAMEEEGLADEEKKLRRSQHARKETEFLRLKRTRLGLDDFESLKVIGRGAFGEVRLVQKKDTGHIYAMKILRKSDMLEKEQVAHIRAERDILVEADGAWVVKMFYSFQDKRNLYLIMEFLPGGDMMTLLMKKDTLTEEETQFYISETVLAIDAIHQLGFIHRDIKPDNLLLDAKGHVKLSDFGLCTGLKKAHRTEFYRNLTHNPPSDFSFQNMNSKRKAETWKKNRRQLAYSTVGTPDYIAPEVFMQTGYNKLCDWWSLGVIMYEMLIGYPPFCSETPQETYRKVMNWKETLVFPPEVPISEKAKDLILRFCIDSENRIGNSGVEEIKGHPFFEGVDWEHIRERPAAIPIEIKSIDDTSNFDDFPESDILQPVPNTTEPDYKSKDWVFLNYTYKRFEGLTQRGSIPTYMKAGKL

[5] = biological target: Calcium/calmodulin-dependent protein kinase type II subunit gamma (Homo sapiens) (UniProt Q13555); test: Inhibition of CAMK2G (unknown origin) assessed as residual activity at 100 nM by KINOMEscan analysis relative to control
Sequence of Calcium/calmodulin-dependent protein kinase type II subunit gamma (Homo sapiens) (Q13555 whole entry, the tested form may be a part): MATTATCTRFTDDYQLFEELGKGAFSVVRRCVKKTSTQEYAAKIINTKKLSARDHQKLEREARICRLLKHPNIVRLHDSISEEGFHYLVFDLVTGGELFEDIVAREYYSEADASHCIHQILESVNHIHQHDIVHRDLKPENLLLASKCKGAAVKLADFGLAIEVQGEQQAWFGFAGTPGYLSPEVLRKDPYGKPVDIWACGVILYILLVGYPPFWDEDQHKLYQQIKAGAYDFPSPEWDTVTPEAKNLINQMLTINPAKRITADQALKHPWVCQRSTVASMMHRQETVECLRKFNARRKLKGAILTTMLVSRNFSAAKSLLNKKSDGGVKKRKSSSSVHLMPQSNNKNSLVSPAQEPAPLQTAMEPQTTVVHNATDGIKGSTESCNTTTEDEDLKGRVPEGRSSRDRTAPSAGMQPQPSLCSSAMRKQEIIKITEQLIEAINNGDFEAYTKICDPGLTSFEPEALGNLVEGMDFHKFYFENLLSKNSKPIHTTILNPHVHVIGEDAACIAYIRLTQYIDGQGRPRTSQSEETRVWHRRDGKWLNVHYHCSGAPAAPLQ

[6] = biological target: Ribosomal protein S6 kinase alpha-1 (Homo sapiens) (UniProt Q15418); test: Inhibition of C-terminal RSK1 kinetic domain 2 (unknown origin) assessed as residual activity at 100 nM by KINOMEscan analysis relative to control
Sequence of Ribosomal protein S6 kinase alpha-1 (Homo sapiens) (Q15418 whole entry, the tested form may be a part): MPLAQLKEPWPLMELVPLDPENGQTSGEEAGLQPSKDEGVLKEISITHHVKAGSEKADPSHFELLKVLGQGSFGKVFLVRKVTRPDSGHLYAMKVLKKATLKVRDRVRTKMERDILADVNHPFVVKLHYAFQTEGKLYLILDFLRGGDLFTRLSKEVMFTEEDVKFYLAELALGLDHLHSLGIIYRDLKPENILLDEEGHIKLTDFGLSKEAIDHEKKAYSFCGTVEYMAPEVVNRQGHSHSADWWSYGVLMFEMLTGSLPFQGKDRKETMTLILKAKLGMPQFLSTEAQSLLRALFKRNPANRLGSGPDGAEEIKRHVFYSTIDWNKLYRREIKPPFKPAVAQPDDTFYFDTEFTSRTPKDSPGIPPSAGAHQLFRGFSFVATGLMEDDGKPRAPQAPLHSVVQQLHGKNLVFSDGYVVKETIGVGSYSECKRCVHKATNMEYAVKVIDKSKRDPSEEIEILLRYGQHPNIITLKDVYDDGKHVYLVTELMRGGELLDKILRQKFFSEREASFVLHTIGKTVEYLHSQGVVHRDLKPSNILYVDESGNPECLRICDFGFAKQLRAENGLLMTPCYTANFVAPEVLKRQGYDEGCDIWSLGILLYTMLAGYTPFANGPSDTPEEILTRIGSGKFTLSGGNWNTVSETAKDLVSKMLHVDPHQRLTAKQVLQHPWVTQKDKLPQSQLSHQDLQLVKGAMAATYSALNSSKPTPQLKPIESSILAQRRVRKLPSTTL

[7] = biological target: Mast/stem cell growth factor receptor Kit (Homo sapiens) (UniProt P10721); test: Inhibition of KIT (unknown origin) assessed as residual activity at 100 nM by KINOMEscan analysis relative to control
Sequence of Mast/stem cell growth factor receptor Kit (Homo sapiens) (P10721 whole entry): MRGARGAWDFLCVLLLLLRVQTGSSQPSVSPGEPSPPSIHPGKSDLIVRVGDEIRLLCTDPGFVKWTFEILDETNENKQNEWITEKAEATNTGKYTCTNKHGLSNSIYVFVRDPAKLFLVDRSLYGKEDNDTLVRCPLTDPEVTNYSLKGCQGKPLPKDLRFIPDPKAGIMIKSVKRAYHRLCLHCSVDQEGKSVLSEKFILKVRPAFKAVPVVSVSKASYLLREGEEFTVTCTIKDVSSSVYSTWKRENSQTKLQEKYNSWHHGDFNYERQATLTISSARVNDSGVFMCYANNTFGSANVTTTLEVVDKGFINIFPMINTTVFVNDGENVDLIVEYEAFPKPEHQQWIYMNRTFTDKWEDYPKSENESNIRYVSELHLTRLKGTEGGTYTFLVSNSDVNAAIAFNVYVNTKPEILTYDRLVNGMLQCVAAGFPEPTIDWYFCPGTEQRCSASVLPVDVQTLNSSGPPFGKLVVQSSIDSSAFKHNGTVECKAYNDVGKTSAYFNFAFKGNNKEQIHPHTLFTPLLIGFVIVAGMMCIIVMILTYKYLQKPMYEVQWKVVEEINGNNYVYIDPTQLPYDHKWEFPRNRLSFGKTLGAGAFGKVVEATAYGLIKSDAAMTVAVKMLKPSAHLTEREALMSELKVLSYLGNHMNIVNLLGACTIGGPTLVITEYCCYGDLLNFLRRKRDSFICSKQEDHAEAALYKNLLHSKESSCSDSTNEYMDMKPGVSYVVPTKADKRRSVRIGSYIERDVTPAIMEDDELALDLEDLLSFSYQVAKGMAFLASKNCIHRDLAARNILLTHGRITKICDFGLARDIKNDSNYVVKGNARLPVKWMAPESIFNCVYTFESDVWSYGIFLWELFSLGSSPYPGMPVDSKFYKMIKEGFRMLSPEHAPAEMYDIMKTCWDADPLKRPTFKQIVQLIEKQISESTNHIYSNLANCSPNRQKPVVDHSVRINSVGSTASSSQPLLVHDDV

[8] = biological target: T1, Rhodopsin kinase GRK7 (Homo sapiens) (UniProt Q8WTQ7); test: Inhibition of GRK7 (unknown origin) assessed as residual activity at 100 nM by KINOMEscan analysis relative to control
T1 sequence (whole entry): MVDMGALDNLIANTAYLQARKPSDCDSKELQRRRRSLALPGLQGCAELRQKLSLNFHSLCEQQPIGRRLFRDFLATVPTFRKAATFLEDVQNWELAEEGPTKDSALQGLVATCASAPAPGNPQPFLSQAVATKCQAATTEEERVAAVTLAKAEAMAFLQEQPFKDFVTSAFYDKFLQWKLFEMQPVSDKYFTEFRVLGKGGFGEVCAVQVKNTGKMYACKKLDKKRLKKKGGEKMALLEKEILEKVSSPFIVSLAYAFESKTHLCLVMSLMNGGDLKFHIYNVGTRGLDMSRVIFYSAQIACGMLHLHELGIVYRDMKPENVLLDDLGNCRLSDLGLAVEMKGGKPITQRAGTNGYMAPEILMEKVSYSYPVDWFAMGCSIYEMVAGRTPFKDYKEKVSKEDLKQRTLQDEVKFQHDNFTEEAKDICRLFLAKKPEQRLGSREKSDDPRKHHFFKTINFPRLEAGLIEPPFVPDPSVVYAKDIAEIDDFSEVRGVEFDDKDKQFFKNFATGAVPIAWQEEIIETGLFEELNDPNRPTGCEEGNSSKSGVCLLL

[9] = biological target: T2, Serine/threonine-protein kinase D3 (Homo sapiens) (UniProt O94806); test: Inhibition of PRKD3 (unknown origin) assessed as residual activity at 100 nM by KINOMEscan analysis relative to control
T2 sequence (whole entry): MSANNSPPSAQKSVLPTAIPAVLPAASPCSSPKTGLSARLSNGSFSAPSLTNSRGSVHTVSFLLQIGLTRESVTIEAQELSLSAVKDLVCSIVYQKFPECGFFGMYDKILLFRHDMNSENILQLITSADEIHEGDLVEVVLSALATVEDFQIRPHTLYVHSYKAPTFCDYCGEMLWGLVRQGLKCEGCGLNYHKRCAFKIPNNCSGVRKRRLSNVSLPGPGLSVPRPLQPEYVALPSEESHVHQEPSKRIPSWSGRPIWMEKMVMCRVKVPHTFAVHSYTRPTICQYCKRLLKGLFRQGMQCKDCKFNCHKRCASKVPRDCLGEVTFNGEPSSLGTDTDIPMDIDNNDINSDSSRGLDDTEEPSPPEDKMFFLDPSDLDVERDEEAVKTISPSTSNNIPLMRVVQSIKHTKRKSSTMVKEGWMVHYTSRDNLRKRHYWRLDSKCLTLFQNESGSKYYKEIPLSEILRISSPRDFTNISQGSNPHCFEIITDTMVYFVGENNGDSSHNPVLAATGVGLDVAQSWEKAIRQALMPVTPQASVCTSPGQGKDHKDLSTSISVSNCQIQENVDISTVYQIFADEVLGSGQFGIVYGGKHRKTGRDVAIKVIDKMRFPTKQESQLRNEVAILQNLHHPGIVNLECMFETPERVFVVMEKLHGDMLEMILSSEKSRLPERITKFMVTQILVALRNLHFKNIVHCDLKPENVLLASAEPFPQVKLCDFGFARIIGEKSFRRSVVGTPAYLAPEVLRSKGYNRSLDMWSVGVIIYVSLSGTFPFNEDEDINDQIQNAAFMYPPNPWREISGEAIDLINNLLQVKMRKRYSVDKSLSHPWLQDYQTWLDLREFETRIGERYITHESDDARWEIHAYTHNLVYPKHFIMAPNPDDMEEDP

[10] = biological target: T3, Receptor-interacting serine/threonine-protein kinase 4 (Homo sapiens) (UniProt P57078); test: Inhibition of RIPK4 (unknown origin) assessed as residual activity at 100 nM by KINOMEscan analysis relative to control
T3 sequence (whole entry): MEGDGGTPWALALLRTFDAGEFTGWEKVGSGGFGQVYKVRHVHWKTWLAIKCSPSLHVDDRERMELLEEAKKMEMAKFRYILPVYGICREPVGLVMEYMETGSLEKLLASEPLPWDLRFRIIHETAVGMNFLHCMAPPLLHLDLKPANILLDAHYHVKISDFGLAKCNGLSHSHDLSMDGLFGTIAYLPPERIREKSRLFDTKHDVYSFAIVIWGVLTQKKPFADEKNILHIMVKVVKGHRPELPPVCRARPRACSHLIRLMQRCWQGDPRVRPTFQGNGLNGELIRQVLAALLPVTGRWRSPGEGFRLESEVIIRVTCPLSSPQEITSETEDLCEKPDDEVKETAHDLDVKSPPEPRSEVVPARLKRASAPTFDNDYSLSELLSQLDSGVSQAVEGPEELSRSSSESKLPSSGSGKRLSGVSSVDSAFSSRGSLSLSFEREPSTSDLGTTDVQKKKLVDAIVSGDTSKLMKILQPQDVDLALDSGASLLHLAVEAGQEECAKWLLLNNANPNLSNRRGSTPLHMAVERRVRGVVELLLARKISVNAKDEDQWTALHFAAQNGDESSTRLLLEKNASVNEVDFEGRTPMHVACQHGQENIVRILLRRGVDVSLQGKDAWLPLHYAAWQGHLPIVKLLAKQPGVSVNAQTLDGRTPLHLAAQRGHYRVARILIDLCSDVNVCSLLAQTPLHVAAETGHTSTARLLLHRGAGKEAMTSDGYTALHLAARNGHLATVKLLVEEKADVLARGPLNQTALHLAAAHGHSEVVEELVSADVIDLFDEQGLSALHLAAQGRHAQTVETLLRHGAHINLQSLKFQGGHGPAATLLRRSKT

Sequence of Atypical kinase COQ8A, mitochondrial (Homo sapiens) (Q8NI60 163-647 limits assumed): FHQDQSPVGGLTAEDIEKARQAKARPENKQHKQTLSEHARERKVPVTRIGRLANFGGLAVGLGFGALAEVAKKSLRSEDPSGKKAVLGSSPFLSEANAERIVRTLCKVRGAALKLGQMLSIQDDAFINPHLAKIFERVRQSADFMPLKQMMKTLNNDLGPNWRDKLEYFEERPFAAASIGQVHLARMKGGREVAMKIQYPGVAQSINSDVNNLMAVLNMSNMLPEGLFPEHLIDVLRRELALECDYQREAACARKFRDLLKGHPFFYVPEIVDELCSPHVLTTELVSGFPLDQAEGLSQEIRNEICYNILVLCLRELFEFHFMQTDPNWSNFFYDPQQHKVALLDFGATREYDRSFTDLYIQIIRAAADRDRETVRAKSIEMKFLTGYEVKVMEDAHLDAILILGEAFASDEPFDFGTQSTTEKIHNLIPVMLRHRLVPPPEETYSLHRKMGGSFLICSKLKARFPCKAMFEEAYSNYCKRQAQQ

Q: Which results are given for `COc1cc2ncnc(N[C@H](C)c3cccc4ccccc34)c2cc1OC`?
A: Activity [1]: 64%; Activity [2]: 95%; Activity [3]: 72%; Activity [4]: 49%; Activity [5]: 60%; Activity [6]: 86%; Activity [7]: 100%; Activity [8]: 84%; Activity [9]: 100%; Activity [10]: 77%
